What was measured:
Format in all cases: functional
Pythium [1] = test: Fungitoxic activity against Pythium sp. assessed as mycelial growth inhibition at 10 ppm after 3 days; conditions: 72 h, read-out: GI
Athelia rolfsii [2] = test: Fungitoxic activity against Athelia rolfsii assessed as mycelial growth inhibition at 100 ppm after 3 days; conditions: Agroathelia rolfsii, 72 h; read-out: GI
Pythium [3] = test: Fungitoxic activity against Pythium sp. assessed as mycelial growth inhibition at 100 ppm after 3 days; conditions: 72 h, read-out: GI
Athelia rolfsii [4] = test: Fungitoxic activity against Athelia rolfsii assessed as mycelial growth inhibition at 10 ppm after 3 days; conditions: Agroathelia rolfsii, 72 h; read-out: GI

Row | Compound | inhibition of growth at 10 ppm (Pythium [1]) [%] | inhibition of growth at 100 ppm (Athelia rolfsii [2]) [%] | inhibition of growth at 100 ppm (Pythium [3]) [%] | inhibition of growth at 10 ppm (Athelia rolfsii [4]) [%]
1 | CCOC(=O)[C@@H](NC(=O)/C=C/c1ccc(Cl)cc1Cl)C(C)C | 19 | 47 | 68 | –
2 | CCCOC(=O)CNC(=O)/C=C/c1ccc(C(C)C)cc1 | 24 | 74 | 63 | 23
3 | CC(C)OC(=O)CNC(=O)/C=C/c1ccc(Cl)cc1 | 0 | 50 | 57 | 41
4 | CCOC(=O)[C@H](CC(C)C)NC(=O)/C=C/c1ccccc1 | – | 40 | 16 | –
5 | CCOC(=O)[C@H](CC(C)C)NC(=O)/C=C/c1ccc(Cl)cc1Cl | – | 34 | 30 | –
6 | CCCOC/C(=N\c1ccc(Cl)cc1C(F)(F)F)n1ccnc1 [TRIFLUMIZOLE] | 71 | 100 | 94 | 64
7 | CC(C)OC(=O)CNC(=O)/C=C/c1ccccc1 [ISOPROPYL 2-CINNAMAMIDOACETATE] | – | 61 | 42 | 15
8 | CCOC(=O)[C@H](Cc1ccccc1)NC(=O)/C=C/c1ccc(Cl)cc1Cl | – | 35 | 18 | –
9 | CCCOC(=O)[C@H](C)NC(=O)/C=C/c1ccc(Cl)cc1 | – | 38 | 21 | –
10 | COC(=O)[C@H](Cc1ccccc1)NC(=O)/C=C/c1ccc(Cl)cc1 | – | 47 | 13 | –
11 | CC(C)C[C@H](NC(=O)/C=C/c1ccccc1)C(=O)OC(C)C | – | 41 | 34 | –
12 | CCCOC(=O)[C@H](CC(C)C)NC(=O)/C=C/c1ccccc1 | – | 45 | 31 | –
13 | COC(=O)[C@H](CC(C)C)NC(=O)/C=C/c1ccc(Cl)cc1Cl | 12 | 42 | 55 | –
14 | COC(=O)[C@H](CC(C)C)NC(=O)/C=C/c1ccccc1 | – | 30 | 23 | –
15 | COC(=O)[C@@H](NC(=O)/C=C/c1ccccc1)C(C)C | – | 29 | 33 | –
16 | CCOC(=O)[C@H](Cc1ccccc1)NC(=O)/C=C/c1ccc(Cl)cc1 | – | 22 | 15 | –
17 | CCCOC(=O)CNC(=O)/C=C/c1ccc(Cl)cc1Cl | – | 28 | 40 | –
18 | CC(C)C[C@H](NC(=O)/C=C/c1ccc(Cl)cc1Cl)C(=O)OC(C)C | – | 39 | 42 | –
19 | COC(=O)[C@H](C)NC(=O)/C=C/c1ccc(Cl)cc1Cl | – | 49 | 55 | –
20 | COC(=O)[C@@H](NC(=O)/C=C/c1ccc(Cl)cc1Cl)C(C)C | 10 | 63 | 67 | 24
21 | COC(=O)[C@H](Cc1ccccc1)NC(=O)/C=C/c1ccc(C(C)C)cc1 | 8 | 52 | 57 | 28
22 | CCOC(=O)[C@@H](NC(=O)/C=C/c1ccc(Cl)cc1Cl)[C@@H](C)CC | 20 | 47 | 52 | –
23 | CCOC(=O)[C@@H](NC(=O)/C=C/c1ccccc1)C(C)C | – | 41 | 41 | –
24 | CC[C@H](C)[C@H](NC(=O)/C=C/c1ccc(Cl)cc1)C(=O)OC | 0 | 65 | 51 | 20
25 | COC(=O)[C@@H](NC(=O)/C=C/c1ccc(Cl)cc1)C(C)C | 0 | 53 | 52 | 20
26 | CC[C@H](C)[C@H](NC(=O)/C=C/c1ccc(C(C)C)cc1)C(=O)OC | 26 | 55 | 65 | 41
27 | CCOC(=O)[C@H](C)NC(=O)/C=C/c1ccc(Cl)cc1Cl | 0 | 52 | 55 | 12
28 | CCOC(=O)[C@H](Cc1ccccc1)NC(=O)/C=C/c1ccc(C(C)C)cc1 | – | 18 | 20 | –
29 | CC[C@H](C)[C@H](NC(=O)/C=C/c1ccc(Cl)cc1Cl)C(=O)OC | 18 | 48 | 59 | –
30 | CCCOC(=O)CNC(=O)/C=C/c1ccccc1 [PROPYL 2-CINNAMAMIDOACETATE] | – | 53 | 47 | 26

Reference: ChEMBL document CHEMBL3046900, “Synthesis and Fungitoxic Activity of N-Cinnamoyl--Amino Acid Esters” (2000)
